Legend:
[1] = tested on: rat pheochromocytoma cells transfected with the M1 mAChR
Protocol: Confluent rat pheochromocytoma cells transfected with the M1 mAChR cultures were detached with trypsin, washed and plated in 24well, 6-well, 60-mm or 100-mm plates that were precoated with rat tail collagen (Sigma, Israel). Several experiments were performed in serum-free medium. For 3-(4,5-dimethylthiazol-2-yl)-2,5-diphenyl-tetrazolium bromide (MIT) assay, cells (1.5×10^4) were plated in 96-well collagen-precoated plates, in serum-free medium, with or without various drugs for 24 hours. For differentiation, cells were grown in the presence of 1% FCS and 1% HS, with addition of 50 ng/ml NGF for 7 days, to cause full differentiation. […] After 7 days, cells were washed and the medium was either replaced to serum-free, or cells were detached and replated in serum-free medium. Cells in serum-free medium were treated either with Aβ peptides that were previously “aged” or with H2O2. Tested compounds were added together with the insults for the indicated time, unless otherwise stated.
Cells were grown and treated on glass coverslips. After treatments, cells were fixed in cold methanol for 5 min at −20° C. followed by treatment with cold acetone at 4° C. for 2 min and washing in PBS. The coverslips were fluorescently stained with DAPI (4,6-diamidino-2-phenylindole; 5 mg/ml, Sigma, Israel) an intercalating agent that enables visualization of chromatin condensation in the cell nuclei for 15 min at room temperature. Cells were washed three times with PBS, mounted in a solution of glycerol containing 22 mM 1,4 dizabicyclo(2,2,2)octane (Sigma, Israel) to prevent fading, and viewed for nuclear chromatin morphology with a fluorescence microscope. Apoptotic and viable cells were counted (200 cells per coverslip, each experiment was performed in duplicates).
The TUNEL (Terminal deoxynucleotidyl transferase (TdT) mediated dUTP nick end labeling) method enzymatically labels DNA fragments at the 3′OH ends (representing the DNA strand breaks) with fluorescein-dUPT (Boehringer Mannheim, Germany). Briefly, following treatment, cells grown on Chamber slides were fixed with paraformaldehyde solution (4%) in PBS, pH 7.4 for 30 min at room temperature. Following washing with PBS cells were permeabilized using 0.1% Triton X-100, 0.1% sodium citrate solution, for 2 min on ice (4° C.), washed with PBS and 50 μl of TUNEL reaction mixture was added on each sample for 1 hr at 37° C., in a humidified chamber. Evans Blue reagent (diluted 1:2000 in PBS) was added for 5 min and the slides were viewed with fluorescence microscope.
Cells were differentiated for 7 days and detached from the plates with Trypsin. 10^6 cells were replated in 50-mm collagen-coated plates in serum-free medium in presence or absence of various treatments. 200-g-centrifuged pellets were prepared and resuspended in 300 μl PBS. 4 ml of cold methanol (−20° C.) were added to each test tube and the fixation was carried out for 15 min at −20° C. Cells were washed in PBS, spun and resuspended in 1 ml PBS. Five microliters of Propidium iodide stock solution (Sigma; 10 mg/ml) and 5 μl of 20 mg/ml solution of RNAse A were added for 5-10 min at room temperature. Fluorescence of individual nuclei was measured using Fluorescence Activated Cell Sorter (FACScan; Becton Dickinson Corp.) excited at 488 nm wavelength and collected through 575±21 nm BP filter. The data were analyzed by Cell Quest software computer system. By this method we were able to measure DNA content of the cells (apoptotic cells have less DNA). Cells in G1 phase of cell cycle are after mitosis and have less DNA than cells in G2/M phase (before and during mitosis). Apoptotic cells were identified as the pre-G1 phase.

[2] = tested on: rat pheochromocytoma cells transfected with M1 mAChR; assay: Neurite outgrowth in rat pheochromocytoma cells transfected with M1 mAChR; format: cell-based; conditions: 24 hrs, without neurotrophins
Protocol: For determination of neurite outgrowth, cells plated in six-well plates were used 3-5 days after plating. Growth factors were added 1 day after plating and muscarinic agonists were added for the last 24 hrs.
Cells were observed under an inverted microscope. The percent of cells with neurite longer than cell diameter were scored in three random fields of several hundred cells from each well. Results were expressed as a percent of cells with neurites. Treatments were performed in triplicate cells. Both NGF (50 ng/ml) and EGF (100 ng/ml) were added 1 day after plating. Muscarinic agonists were added 24 hours before scoring.

[3] = tested on: cortical and hippocampal cell culture; assay: Protection against NMDA-induced cell death in primary rat brain cultures; conditions: for neuroprotective potency against 200 μM NMDA, compared with 20 μM MK801: 100 μM agonist; for prevention of NMDA-induced cell death: 20-24 hrs
human M1 receptor = biological target: T1, human M1 receptor (Homo sapiens, UniProt P11229); assay: Arachidonic acid (AA) release, human M1; format: cell-based
T1 construct: expressed in transfected cells
T1 sequence (P11229 1-460): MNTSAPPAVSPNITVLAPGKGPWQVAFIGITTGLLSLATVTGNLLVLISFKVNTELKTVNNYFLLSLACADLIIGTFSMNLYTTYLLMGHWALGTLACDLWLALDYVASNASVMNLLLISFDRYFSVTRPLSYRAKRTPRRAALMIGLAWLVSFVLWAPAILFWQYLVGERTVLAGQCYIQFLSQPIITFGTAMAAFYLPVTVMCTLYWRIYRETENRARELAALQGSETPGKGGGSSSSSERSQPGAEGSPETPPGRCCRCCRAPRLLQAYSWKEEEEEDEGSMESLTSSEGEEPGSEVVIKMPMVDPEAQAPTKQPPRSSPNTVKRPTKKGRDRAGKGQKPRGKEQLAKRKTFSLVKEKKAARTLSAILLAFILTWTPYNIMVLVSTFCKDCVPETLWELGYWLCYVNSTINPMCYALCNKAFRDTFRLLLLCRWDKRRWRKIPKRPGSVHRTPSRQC

tau = assay: Tau phosphorylation, AT8 immunoblot; format: cell-based; conditions: 100 μM; to the control level
Description: Following the experimental design of Sadot et al., J.Neurochem. […] By linking an M1 agonist to an antioxidant moiety tau phophorylation may be decreased, providing a new therapeutic strategy in a variety of CNS disease states due to combined damage due to oxidative stress and tau hyperphosphorylation.

SMILES | H2O2-induced apoptosis (DAPI) [1] | apoptotic cell death induced by starvation (DAPI) [1] | apoptotic death during starvation (FACS) [1] | β-amyloid 25-35 induced apoptosis (TUNEL) [1] | β-amyloid increased apoptotic population (FACS) [1] | Maximal neurite outgrowth response (percent of cells with neurites) [2] [%] | neuroprotective potency against 200 μM NMDA, compared with 20 μM MK801 [3] | prevention of NMDA-induced cell death [3] | AA release vs. CCh (as 100%) (human M1 receptor) [%] | phosphorylated tau (AT8) (tau)
CC1=NCC2(CCN(C)CC2)S1 [AF150(S), 2,8-Dimethyl-1-thia-3,8-diaza-spiro[4.5]dec-2-ene] | prevented | significantly protect | protected cells from apoptotic death | able to block the apoptosis | reduced the apoptotic population significantly | 30 | slightly less | effective in prevention of cell death |  | 
CC[C@@H]1SC2(CCNCC2)NC1=O [AF292, (S)-2-Ethyl-1-thia-4,8-diaza-spiro[4.5]decan-3-one] |  |  |  |  |  |  |  |  | > 88 | induce dephosphorylation of tau proteins
CC[C@@H]1SC2(CCN(C)CC2)NC1=O [AF267B, (S)-2-ethyl-8-methyl-1-thia-4,8-diaza-spiro[4.5]decan-3-one] | prevented | significantly protect | protected cells from apoptotic death |  | reduced the apoptotic population significantly | 60 | slightly less | effective in prevention of cell death | 100 | induce dephosphorylation of tau proteins

From patent US7439251B2, “Methods and compositions for treatment of central and peripheral nervous system disorders and novel compounds useful therefor” (Israel Institute for Biological Research, priority 2002, dated 2008)
